Experimental findings from US20250326748A1, “COMPOUNDS AND METHODS FOR MODULATING SPLICING” (REMIX THERAPEUTICS INC., priority 2022, published 2025) are described below.

Read-outs that look alike come from different tables or passages of the source.

As a reminder, the IC50 is the concentration needed to halve the response being measured. Usually AC50 stands for the concentration giving half of the maximal activity seen.

In series [1] the test system is K562 cells. Put plainly: Cell viability, Cell Titer Glo 2.0 assay, K562. The note with it: 72 hours. For orientation: In ATP-based viability assays light output follows the ATP content of the culture.
In series [2] the test system is MYB mRNA. Put plainly: Splicing RT-qPCR assay, MYB canonical (CJ) and alternative (AJ) junction mRNA. The note with it: Homo sapiens; for IC50: canonical junction mRNA; for AC50: alternative junction mRNA, read-out: MYB AJ (AC50, increase in AJ mRNA). The format is cell-based, human. The method, then: (§1) Compounds described herein were used to modulate RNA transcript abundance in cells. The expression of a target mRNA was measured by detecting the formation of an exon-exon junction in the canonical transcript (CJ). A compound mediated exon-inclusion event was detected by observing an increase in formation of a new junction with an alternative exon (AJ). Real-time qPCR assays were used to detect these splicing switches and interrogate the potency of various compounds towards different target genes. A high-throughput real time quantitative PCR (RT-qPCR) assay was developed to measure these two isoforms of the mRNA (CJ and AJ) for exemplary genes, such as HTT, SMN2, and MYB, together with a control housekeeping gene, GAPDH or GUSB or PPIA, used for normalization. Briefly, the A673 or K562 cell line was treated with various compounds described herein (e.g., compounds of Formula (D). After treatment, the levels of the HTT, MYB, or SMN2 mRNA targets were determined from each sample of cell lysate by cDNA synthesis followed by qPCR.
(§2) • Cells-to-CT 1-step kit: ThermoFisher A25602, Cells-to-CT lysis reagent: ThermoFisher 4391851C, TaqMan™ Fast Virus 1-Step Master Mix: ThermoFisher 4444436 • GAPDH: VIC-PL, ThermoFisher 4326317E (Assay: Hs99999905_m1)—used for K562/suspension cell lines • GUSB: VIC-PL, ThermoFisher 4326320E (Assay: Hs99999908_m1)—used for K562/suspension cell lines • PPIA: VIC-PL, ThermoFisher 4326316E (Assay: Hs99999904_m1)—used for A673/adherent cell lines
(§3) The A673 cell line was cultured in DMEM with 10% FBS. Cells were diluted with full growth media and plated in a 96-well plate (15,000 cells in 100 ul media per well). The plate was incubated at 37° C. with 5% CO2 for 24 hours to allow cells to adhere. An 11-point 3-fold serial dilution of the compounds was made in DMSO then diluted in media in an intermediate plate. Compounds were transferred from the intermediate plate to the cell plate with the top dose at a final concentration of 10 uM in the well. Final DMSO concentration was kept at or below 0.25%. The cell plate was returned to the incubator at 37° C. with 5% CO2 for an additional 24 hours.
(§4) The K562 cell line was cultured in IMDM with 10% FBS. For K562, cells were diluted with full growth media and plated in either a 96-well plate (50,000 cells in 50 uL media per well) or a 384-well plate (8,000-40,000 cells in 45 uL media per well). An 11-point 3-fold serial dilution of the compounds were made in DMSO then diluted in media in an intermediate plate. Compound was transferred from the intermediate plate to the cell plate with the top dose at a final concentration of 10 uM in the well. Final DMSO concentration was kept at or below 0.25%. Final volume was 100 uL for 96-well plate and 50 uL for 384-well plate. The cell plate was then placed in an incubator at 37° C. with 5% CO2 for 24 hours.
(§5) The cells were then gently washed with 50 uL-100 uL cold PBS before proceeding to addition of lysis buffer. 30 uL-50 μL of room temperature lysis buffer with DNAse I (and optionally RNAsin) was added to each well. Cells were shaken/mixed thoroughly at room temperature for 5-10 minutes for lysis to take place and then 3 uL-5 μL of room temperature stop solution was added and wells were shaken/mixed again. After 2-5 minutes, the cell lysate plate was transferred to ice for RT-qPCR reaction setup. The lysates could also be frozen at −80° C. for later use.
(§6) In some cases, a direct lysis buffer was used. An appropriate volume of 3× lysis buffer (10 mM Tris, 150 mM NaCl, 1.5%-2.5% Igepal and 0.1-1 U/uL RNAsin, pH 7.4) was directly added to either K562 or A673 cells in media and mixed by pipetting 3 times. The plates were then incubated at room temperature with shaking/rocking for 20-50 minutes to allow for lysis to take place. After this time, the cell lysate plate was transferred to ice to set up for the RT-qPCR reactions. The lysates could also be frozen at −80° C. for later use. […]

The test system of series [3] is Target C mRNA. Put plainly: Splicing RT-qPCR panel, Target C canonical junction (CJ) mRNA. In kind it is cell-based, human. The note with it: Homo sapiens, read-out: Target C CJ (decrease in CJ mRNA levels, IC50). How it is done: as §1, §3, §4, §5
In some cases, a direct lysis buffer was used. An appropriate volume of 3× lysis buffer (10 mM Tris, 150 mM NaCl, 1.5%-2.5% Igepal and 0.1-1 U/uL RNAsin, pH 7.4) was directly added to either K562 or A673 cells in media and mixed by pipetting 3 times. The plates were then incubated at room temperature with shaking/rocking for 20-50 minutes to allow for lysis to take place. After this time, the cell lysate plate was transferred to ice to set up for the RT-qPCR reactions. The lysates could also be frozen at −80° C. for later use.
To set up 10 uL RT-qPCR reactions, cell lysates were transferred to 384-well qPCR plates containing the master mix according to the table below. The plates were sealed, gently vortexed, and spun down before the run. The volumes were adjusted accordingly in some instances where the reaction was carried in 20 μL. The table below summarizes the components of the RT-qPCR reactions:
The RT-qPCR reaction was performed using a QuantStudio (ThermoFisher) under the following fast cycling conditions. […]
Background: Real-time PCR tracks product formation cycle by cycle.

Series [4] concerns HTT mRNA. As to the kind of experiment: Splicing RT-qPCR assay, HTT canonical (CJ) and alternative (AJ) junction mRNA. In kind it is cell-based, human. As to conditions: Homo sapiens; for IC50: canonical junction mRNA; for AC50: alternative junction mRNA, read-out: HTT AJ (AC50, increase in AJ mRNA). How it is done: as §1, §2, §3, §4, §5, §6
Setting [5] is: qPCR panel, read-out: MYB CJ (decrease in CJ mRNA levels, IC50).
Where [6] appears, read: RT-qPCR, A673 or K562 cells, 24 hours treatment.
The mark [7] stands for this setting: RT-qPCR, A673 or K562 cells, 24 hours treatment, read-out: MYB CJ (IC50, decrease in CJ mRNA).
[8] abbreviates: 24 h, RT-qPCR, A673 or K562 cells, 24 hours treatment, read-out: HTT CJ (IC50, decrease in CJ mRNA).
[9] abbreviates: qPCR panel, read-out: HTT CJ (decrease in CJ mRNA levels, IC50).

As for `Cc1c(O)c(-c2cc(Cl)c3cc(N4C[C@H](C)N[C@@H](C)C4)cnc3n2)cc2cn(C)nc12` [Compound 232, 5-{4-chloro-6-[(3S,5S)-3,5-dimethylpiperazin-1-yl]-1,8-naphthyridin-2-yl}-2,7-dimethylindazol-6-ol], the “Effect on Cell Viability, K562” value in series [1] is given as “A (<100 nM)”. In addition, the IC50 in series [2] (setting [5]) is below 100 nM; in series [2] (setting [7]), below 100 nM; in series [3], 100 to 1000 nM; in series [4] (setting [8]), below 100 nM; in series [4] (setting [9]), below 100 nM. Moreover, the AC50 in series [2] (setting [6]) and in series [4] (setting [6]) was below 100 nM each time.
As to `Cc1c(O)c(-c2cc(C3CC3)c3cc(N4C[C@@H](C)N[C@@H](C)C4)cnc3n2)cc2cn(C)nc12` [Compound 374, 5-{4-cyclopropyl-6-[(3R,5S)-3,5-dimethylpiperazin-1-yl]-1,8-naphthyridin-2-yl}-2,7-dimethylindazol-6-ol], the “Effect on Cell Viability, K562” value in series [1] is given as “C (1000-9999 nM)”. Besides, the IC50 in series [2] (setting [5]) was 100 to 1000 nM; in series [2] (setting [7]), 100 to 1000 nM; in series [3], above 10000 nM; in series [4] (setting [8]) it was 1000 to 10000 nM; in series [4] (setting [9]), 1000 to 10000 nM. Further, the figures for the AC50 in series [2] (setting [6]) and in series [4] (setting [6]) were 100 to 1000 nM and 1000 to 10000 nM, respectively.
`Cc1c(O)c(-c2cc(Cl)c3cc(N4C[C@@H]5CCCN(C)[C@@H]5C4)cnc3n2)cc2cn(C)nc12` [Compound 375]: in series [1], the “Effect on Cell Viability, K562” value is “B (100-1000 nM)”. For the same compound, the half-inhibitory concentration (IC50) in series [2] (setting [5]) was 100 to 1000 nM; in series [2] (setting [7]), 100 to 1000 nM; in series [3] it was above 10000 nM; in series [4] (setting [8]), above 10000 nM; in series [4] (setting [9]), above 10000 nM. Also, the values for the AC50 in series [2] (setting [6]) and in series [4] (setting [6]) were 100 to 1000 nM and above 10000 nM, respectively.
For `CN1CCC[C@H]2CN(c3cnc4nc(-c5cc(F)c6nn(C)cc6c5)cc(Cl)c4c3)C[C@H]21` [Compound 376, 6-[(4aS,7aS)-1-methyl-hexahydro-2H-pyrrolo[3,4-b]pyridin-6-yl]-4-chloro-2-(7-fluoro-2-methylindazol-5-yl)-1,8-naphthyridine], the “Effect on Cell Viability, K562” value in series [1] is “C (1000-9999 nM)”. For the same compound, the IC50 in series [2] (setting [5]) is 1000 to 10000 nM; in series [2] (setting [7]), 1000 to 10000 nM; in series [3], above 10000 nM; in series [4] (setting [8]), above 10000 nM; in series [4] (setting [9]), above 10000 nM. Also, the figures for the AC50 in series [2] (setting [6]) and in series [4] (setting [6]) were 1000 to 10000 nM and above 10000 nM, respectively.
As to `Cc1c(O)c(-c2cc(C3CC3)c3cc(N4C[C@H](C)N[C@@H](C)C4)cnc3n2)cc2cn(C)nc12` [Compound 377, 5-{4-cyclopropyl-6-[(3S,5S)-3,5-dimethylpiperazin-1-yl]-1,8-naphthyridin-2-yl}-2,7-dimethylindazol-6-ol], the “Effect on Cell Viability, K562” value in series [1] was “B (100-1000 nM)”. Moreover, the IC50 in series [2] (setting [5]) was below 100 nM; in series [2] (setting [7]), below 100 nM; in series [3], 1000 to 10000 nM; in series [4] (setting [8]), 100 to 1000 nM; in series [4] (setting [9]), 100 to 1000 nM. Moreover, the AC50 in series [2] (setting [6]) was below 100 nM; in series [4] (setting [6]) it was 100 to 1000 nM.
